Measurements from PubChem BioAssay (NCI).
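Exposure lasted 48 hours, with cells grown in 96-well plates and compounds tested at five concentrations. The concentration for 50% growth inhibition is given as GI50. The concentration for full growth arrest is given as TGI.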

Tests used:
Assay in all cases: NCI anticancer screen, dose series, 48 h
786-0 renal = test system: 786-0 renal
A549 NSCLC = test system: A549 NSCLC
HOP-62 NSCLC = test system: HOP-62 NSCLC
IGROV1 ovarian = test system: IGROV1 ovarian
NCI-H226 lung = test system: NCI-H226 lung
OVCAR-5 ovarian = test system: OVCAR-5 ovarian
SK-MEL-2 melanoma = test system: SK-MEL-2 melanoma
MDA-MB-231 breast = test system: MDA-MB-231 breast
PC-3 prostate = test system: PC-3 prostate
T-47D breast = test system: T-47D breast

| Structure (SMILES) | TGI (786-0 renal) [µM] | TGI (A549 NSCLC) [µM] | TGI (HOP-62 NSCLC) [µM] | TGI (IGROV1 ovarian) [µM] | TGI (NCI-H226 lung) [µM] | TGI (OVCAR-5 ovarian) [µM] | TGI (SK-MEL-2 melanoma) [µM] | GI50 (786-0 renal) [µM] | GI50 (A549 NSCLC) [µM] | GI50 (HOP-62 NSCLC) [µM] | GI50 (IGROV1 ovarian) [µM] | GI50 (MDA-MB-231 breast) [µM] | TGI (MDA-MB-231 breast) [µM] | GI50 (NCI-H226 lung) [µM] | GI50 (OVCAR-5 ovarian) [µM] | GI50 (PC-3 prostate) [µM] | TGI (PC-3 prostate) [µM] | GI50 (SK-MEL-2 melanoma) [µM] | GI50 (T-47D breast) [µM] | TGI (T-47D breast) [µM] |
| --- | --- | --- | --- | --- | --- | --- | --- | --- | --- | --- | --- | --- | --- | --- | --- | --- | --- | --- | --- | --- |
| O=C(CC(=O)C1CCOC1=O)C(=O)Nc1ccc(Cl)cc1Cl (centres undefined) | > 100 | > 100 | > 100 | > 100 | > 100 | > 100 | > 100 | – | – | – | – | – | – | – | – | – | – | – | – | – |
| COC(=O)C(Cc1nc2ccc(Cl)cc2[nH]c1=O)/C(=N/NC(N)=O)C(=O)Nc1ccc(Cl)cc1 (centres undefined) | > 100 | > 100 | > 100 | > 100 | > 100 | > 100 | > 100 | – | – | – | – | – | – | – | – | – | – | – | – | – |
| COCCOCC(=O)N(CCn1ccc(NC(c2ccccc2)(c2ccccc2)c2ccccc2)nc1=O)CCn1cnc2nc(N)[nH]c(=O)c21 | > 100 | > 100 | > 100 | > 100 | > 100 | > 100 | > 100 | – | – | – | – | – | – | – | – | – | – | – | – | – |
| Cn1c2c(c3ccccc31)CCN(CCCCN1CCN(c3cccc(Cl)c3)CC1)C2=O | 29.6 | 70.2 | 30.7 | 47 | – | 16.9 | 31.1 | – | – | – | – | – | – | – | – | – | – | – | – | – |
| Cc1nc(N)sc1C(=O)Nc1cc(C(=O)NCCCN(C)C)n(C)c1 | > 100 | > 100 | > 100 | > 100 | > 100 | > 100 | > 100 | > 100 | > 100 | > 100 | > 100 | > 100 | > 100 | > 100 | > 100 | > 100 | > 100 | > 100 | 35.7 | > 100 |
| COc1cc2nc3cc([N+](=O)[O-])ccc3c(NCCCNCC(C)(C)O)c2cc1OC | 1.22 | 1.17 | 0.708 | 1.3 | 2.89 | 3.39 | 0.518 | 0.277 | 0.32 | 0.169 | 0.35 | 0.222 | 0.9 | 0.771 | 0.465 | 0.322 | 1.11 | 0.234 | 0.237 | 0.756 |
| CCCCCCCCCCCCN(O)C(=O)c1ccccc1 | 49.2 | > 100 | – | > 100 | – | 82.2 | > 100 | – | – | – | – | – | – | – | – | – | – | – | – | – |
| O=C(Oc1ccccc1Cl)c1ccccc1Nc1ccnc(C(F)(F)F)c1 | 2.39 | 21.5 | 7.86 | > 100 | 0.915 | 24.4 | > 100 | 0.859 | 1.36 | 2.69 | 16.3 | 0.202 | 0.502 | 0.286 | 0.459 | 0.306 | 3.55 | 26.4 | 31.2 | > 100 |
| O=C(O)Cn1c(=O)[nH]c(=O)c2c1ncn2Cc1ccccc1 | > 100 | > 100 | > 100 | – | > 100 | > 100 | > 100 | – | – | – | – | – | – | – | – | – | – | – | – | – |
| Cc1ccc2[nH]c3c(ncc4[nH]c5ccccc5c43)c2c1 | 31.5 | 32.7 | > 10 | 29.6 | 30.4 | 30.8 | 33.6 | – | – | – | – | – | – | – | – | – | – | – | – | – |
| CCCCn1sc(=O)n(Cc2ccc(CNC(=O)OCc3ccc4c(Br)cc(Br)c(O)c4n3)cc2)c1=O | > 100 | > 100 | > 100 | > 100 | – | > 100 | > 100 | 1.58 | 3.76 | 0.749 | 0.531 | 0.475 | > 51.1 | – | > 24.7 | 0.651 | > 100 | 1.28 | > 100 | > 100 |
| CC(=O)[O][Hg][c]1ccccc1 | 2.82 | – | 3.11 | 0.934 | 4.81 | 3.84 | 1.27 | 1.43 | – | 1.62 | 0.295 | 0.732 | 2.09 | 1.12 | 2.19 | 1.41 | 3.21 | 0.401 | 0.163 | 0.382 |
| CN(C)c1n/c(=N/c2ncn[nH]2)ss1 | > 100 | > 100 | > 100 | > 100 | > 100 | > 100 | > 100 | – | – | – | – | – | – | – | – | – | – | – | – | – |
| CC/C(C)=C1\OC(=O)C(C)C(O)C(Cc2cccnc2)NC(=O)C(NC(=O)c2ncccc2O)C(C)OC1=O (centres undefined) | > 100 | > 100 | > 100 | > 100 | – | > 100 | > 100 | – | – | – | – | – | > 100 | – | – | – | > 100 | – | – | > 100 |
| CC(C)(C)C(=O)O[C@@H]1COC2C(O)COC21 (some centres undefined) | > 100 | > 100 | > 100 | > 100 | – | > 100 | – | – | – | – | – | – | – | – | – | – | – | – | – | – |
| O=C1C(Cl)=C(Nc2cccc(O)c2)C(=O)N1c1ccccc1Cl | > 100 | > 100 | > 100 | – | 49.6 | > 100 | 61.6 | 39 | 50 | 32.9 | – | 5.68 | 42.4 | 17 | 55.2 | 10.7 | 31.2 | 25.5 | 32.3 | > 100 |
| N#CC1(C=O)c2ccccc2C=CN1C(=O)c1ccccc1 (centres undefined) | > 100 | > 100 | – | > 100 | > 100 | – | > 100 | – | – | – | – | – | – | – | – | – | – | – | – | – |
| CC(=O)[O-].O=C([CH-]C(=O)c1ccccc1)c1ccccc1.O=C([CH-]C(=O)c1ccccc1)c1ccccc1.[Y+3] | 18 | 34.3 | 13.4 | 35.8 | 9.69 | 80.6 | 9.69 | 3.9 | 10.3 | 2.31 | 6.94 | – | – | 2.56 | 17.3 | – | – | 2.85 | – | – |
